{
  "source": "patent US20220107328A1",
  "about": "“METHODS OF TREATING LIVER DISEASES” (Camp4 Therapeutics Corporation, priority 2018, published 2022)",
  "key": {"[1]": {"system": "phosphorylated AKT (pAKT/AKT)", "assay": "Western blot of phosphorylated AKT in human hepatocytes", "type": "cell-based", "settings": "human hepatocytes, 3 μM, mTORC2 pathway; time point not stated", "procedure": "(§1) Levels of phosphorylated S6, AKT, and NDRG1 proteins were determined as compared to total S6, AKT, and NDRG1 protein. PNPLA3 mRNA expression was quantified and normalized to housekeeping gene GUSB."}, "[2]": {"system": "COL1A1 mRNA", "assay": "qRT-PCR of COL1A1 mRNA in human primary hepatic stellate cells", "type": "cell-based", "settings": "for Primary Stellate cells COL1A1 (fold change in mRNA expression): 3 μM, relative to GAPDH; for Relative COL1A1 mRNA levels RQ: hepatic stellate cells"}, "[3]": {"system": "phosphorylated 4EBP1 (p4EBP1c (37/46)/4EBP1c)", "assay": "Western blot of phosphorylated 4EBP1 in human hepatocytes", "type": "cell-based", "settings": "3 μM, mTORC1 pathway, time point not stated"}, "[4]": {"system": "phosphorylated S6 (pS6/S6)", "assay": "Western blot of phosphorylated S6 in human hepatocytes", "type": "cell-based", "settings": "human hepatocytes, 3 μM, mTORC1 pathway; time point not stated", "procedure": "as §1"}, "[5]": {"system": "phosphorylated NDRG1 (pNDRG1/NDRG1)", "assay": "Western blot of phosphorylated NDRG1 in human hepatocytes", "type": "cell-based", "settings": "3 μM, mTORC2 pathway, time point not stated", "procedure": "as §1"}, "[6]": {"system": "PNPLA3 mRNA", "assay": "qRT-PCR of PNPLA3 mRNA in compound-treated primary human hepatocytes", "settings": "for Primary Hepatocytes 4178 PNPLA3 (fold change in mRNA expression): donor 4178, 3 μM; for Primary Hepatocytes 4178 PNPLA3 (fold change in mRNA expression) / Primary Hepatocytes 4282 PNPLA3 (fold change in mRNA expression): relative to GUSB; for Primary Hepatocytes 4282 PNPLA3 (fold change in mRNA expression): donor 4282, 3 μM"}, "[7]": {"system": "PNPLA3 mRNA", "assay": "qRT-PCR of PNPLA3 mRNA in human primary hepatic stellate cells", "type": "cell-based", "settings": "for Primary Stellate cells PNPLA3 (fold change in mRNA expression): 3 μM, relative to GAPDH; for Relative PNPLA3 mRNA levels RQ: hepatic stellate cells"}, "[8]": {"system": "PCSK9 mRNA", "assay": "qRT-PCR of PCSK9 mRNA in primary hepatocytes", "type": "cell-based, human", "settings": "donor 4178, 3 μM, relative to GUSB"}, "[9]": {"system": "TIM2 mRNA", "assay": "qRT-PCR of fibrosis related genes in stellate cells, TIM2", "type": "cell-based, human", "settings": "stellate cells P7, 0.5 μM, 18 hours", "procedure": "(§2) Stellate cells P7 were treated with 0.5 μM of each of the indicated compounds for 18 hours. Cells were processed for RNA extraction and qRT-PCR as previously described. The assay was repeated in triplicate."}, "[10]": {"system": "COL1A2 mRNA", "assay": "qRT-PCR of fibrosis related genes in stellate cells, COL1A2", "type": "cell-based, human", "settings": "stellate cells P7, 0.5 μM, 18 hours", "procedure": "as §2"}, "[11]": {"system": "ACTA2 mRNA", "assay": "qRT-PCR of fibrosis related genes in stellate cells, ACTA2", "type": "cell-based, human", "settings": "stellate cells P7, 0.5 μM, 18 hours", "procedure": "as §2"}, "[12]": {"system": "MMP2 mRNA", "assay": "qRT-PCR of fibrosis related genes in stellate cells, MMP2", "type": "cell-based, human", "settings": "stellate cells P7, 0.5 μM, 18 hours", "procedure": "as §2"}, "[13]": {"system": "TGFB1 mRNA", "assay": "qRT-PCR of fibrosis related genes in stellate cells, TGFB1", "type": "cell-based, human", "settings": "stellate cells P7, 0.5 μM, 18 hours", "procedure": "as §2"}, "[14]": {"system": "PNPLA3 mRNA", "assay": "qRT-PCR of PNPLA3 mRNA in compound-treated mouse hepatocytes", "type": "cell-based", "settings": "mouse hepatocytes, 1 μM, normalized to ACTB", "description": "Analysis of the fold changes in expression as measured by qRT-PCR were performed using the technique below. The control was DMSO, and the treatment was the selected compound (CPD). The internal control was GAPDH or B-Actin (or otherwise indicated), and the gene of interest is the target. First, the averages of the 4 conditions were calculated for normalization: DMSO:GAPDH, DMSO:Target, CPD: GAPDH, and CPD:Target. Next, the ΔCT of both control and treatment were calculated to normalize to internal control (GAPDH) using (DMSO:Target)−(DMSO:GAPDH)=ΔCT control and (CPD:Target)−(CPD: GAPDH)=ΔCT experimental. Then, the ΔΔCT was calculated by ΔCT experimental−ΔCT control. The Expression Fold Change (or Relative Quantification, abbreviated as RQ) was calculated by 2−(ΔΔCT) (2-fold expression change was shown by RNA-Seq results provided herein).\nCompounds were tested at concentrations ranging from 0.01 μM to 50 μM. […] PNPLA3 levels were normalized to the level of a house keeping gene ACTB."}, "[15]": {"system": "mouse hepatocytes", "assay": "Cytotoxicity in mouse hepatocytes", "type": "cell-based", "settings": "10 μM"}, "[16]": {"system": "PNPLA5 expression", "assay": "RNA-seq of compound-treated primary human hepatocytes, PNPLA5", "type": "cell-based", "description": "To identify small molecules that modulate PNPLA3, primary human hepatocytes were prepared as a monoculture, and at least one small molecule compound was applied to the cells.\nRNA-seq was performed to determine the effects of the compounds on PNPLA3 expression in hepatocytes. Fold change was calculated by dividing the level of expression in the cell system that had been perturbed by the level of expression in an unperturbed system. Changes in expression having a p-value≤0.05 were considered significant."}, "[17]": {"system": "PNPLA3 expression", "assay": "RNA-seq of compound-treated primary human hepatocytes", "type": "cell-based"}, "[18]": {"settings": "stellate cells P7, 0.5 μM, 18 hours"}},
  "data": [
    {"compound": "CO[C@H]1C[C@@H]2CC[C@@H](C)[C@@](O)(O2)C(=O)C(=O)N2CCCC[C@H]2C(=O)O[C@H]([C@H](C)C[C@@H]2CC[C@@H](O)[C@H](OC)C2)CC(=O)[C@H](C)/C=C(\\C)[C@@H](O)[C@@H](OC)C(=O)[C@H](C)C[C@H](C)/C=C/C=C/C=C/1C", "note": "[rapamycin]", "values": [
      {"measurement": "pAKT (473)/AKT", "setting": "[1]", "result": 2.55},
      {"measurement": "Primary Stellate cells COL1A1 (fold change in mRNA expression)", "setting": "[2]", "result": 1.43},
      {"measurement": "p4EBP1c (37/46)#/4EBP1c", "setting": "[3]", "result": 0.49},
      {"measurement": "pS6/S6", "setting": "[4]", "result": 0.07},
      {"measurement": "p-NDRG1/NDRG1", "setting": "[5]", "result": 1.76},
      {"measurement": "Primary Hepatocytes 4178 PNPLA3 (fold change in mRNA expression)", "setting": "[6]", "result": 1.50},
      {"measurement": "Primary Hepatocytes 4282 PNPLA3 (fold change in mRNA expression)", "setting": "[6]", "result": 1.10},
      {"measurement": "PNPLA3 mRNA", "setting": "[6]; human hepatocytes, 3 μM, normalized to GUSB, time point not stated", "result": 1.2},
      {"measurement": "Primary Stellate cells PNPLA3 (fold change in mRNA expression)", "setting": "[7]", "result": 0.49},
      {"measurement": "Primary Hepatocytes 4178 PCSK9 (fold change in mRNA expression)", "setting": "[8]", "result": 1.37}
    ]},
    {"compound": "CC(C)n1nc(-c2ccc3oc(N)nc3c2)c2c(N)ncnc21", "note": "[INK-128]", "values": [
      {"measurement": "Primary Stellate cells COL1A1 (fold change in mRNA expression)", "setting": "[2]", "result": 0.47},
      {"measurement": "Relative COL1A1 mRNA levels RQ", "setting": "[2]; 0.01 μM", "result": 1.05},
      {"measurement": "Relative COL1A1 mRNA levels RQ", "setting": "[2]; 0.1 μM", "result": 0.27},
      {"measurement": "Relative COL1A1 mRNA levels RQ", "setting": "[2]; 1 μM", "result": 0.32},
      {"measurement": "Relative COL1A1 mRNA levels RQ", "setting": "[2]; 10 μM", "result": 0.21},
      {"measurement": "Relative mRNA COL1A1", "setting": "[2]; [18]", "result": "0.23 ± 0.01"},
      {"measurement": "Relative mRNA TIMP2", "setting": "[9]", "result": "1.26 ± 0.01"},
      {"measurement": "Relative mRNA COL1A2", "setting": "[10]", "result": "0.30 ± 0.01"},
      {"measurement": "Relative mRNA ACTA2", "setting": "[11]", "result": "0.61 ± 0.02"},
      {"measurement": "Relative mRNA MMP2", "setting": "[12]", "result": "1.53 ± 0.05"},
      {"measurement": "Primary Hepatocytes 4178 PNPLA3 (fold change in mRNA expression)", "setting": "[6]", "result": 1.50},
      {"measurement": "Primary Hepatocytes 4282 PNPLA3 (fold change in mRNA expression)", "setting": "[6]", "result": 1.63},
      {"measurement": "Relative mRNA TGFB1", "setting": "[13]", "result": "1.20 ± 0.02"},
      {"measurement": "Primary Stellate cells PNPLA3 (fold change in mRNA expression)", "setting": "[7]", "result": 0.56},
      {"measurement": "Relative PNPLA3 mRNA levels RQ", "setting": "[7]; 0.01 μM", "result": 0.40},
      {"measurement": "Relative PNPLA3 mRNA levels RQ", "setting": "[7]; 0.1 μM", "result": 0.28},
      {"measurement": "Relative PNPLA3 mRNA levels RQ", "setting": "[7]; 1 μM", "result": 0.58},
      {"measurement": "Relative PNPLA3 mRNA levels RQ", "setting": "[7]; 10 μM", "result": 0.58},
      {"measurement": "Relative mRNA PNPLA3", "setting": "[7]; [18]", "result": "0.28 ± 0.01"},
      {"measurement": "Relative PNPLA3 mRNA levels", "setting": "[14]", "result": "0.30 ± 0.14"},
      {"measurement": "Primary Hepatocytes 4178 PCSK9 (fold change in mRNA expression)", "setting": "[8]", "result": 0.98}
    ]},
    {"compound": "C1=C/COCc2cc(ccc2OCCN2CCCC2)Nc2nccc(n2)-c2cccc(c2)COC/1", "note": "[Pacritinib]", "values": [
      {"measurement": "cytotoxicity / tolerability", "setting": "[15]", "result": "slight cytotoxicity"}
    ]},
    {"compound": "Activin", "values": [
      {"measurement": "PNPLA5 expression in the RNA-seq study (in words)", "setting": "[16]", "result": "best upregulators of PNPLA3 and PNPLA5"},
      {"measurement": "PNPLA3 expression in the RNA-seq study (in words)", "setting": "[17]", "result": "best upregulators of PNPLA3 and PNPLA5"}
    ]}
  ]
}
